Measurements as given in PubChem BioAssay (NCI).
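All cell lines were grown in 96-well plates and treated with compound for 48 hours. GI50 = concentration required for 50% inhibition of growth. The concentration for full growth arrest is given as TGI.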

Tests used:
Assay in all cases: NCI anticancer screen, dose series, 48 h
786-0 renal = system: 786-0 renal
A549 NSCLC = system: A549 NSCLC
ACHN renal = system: ACHN renal
BT-549 breast = system: BT-549 breast
CAKI-1 renal = system: CAKI-1 renal
CCRF-CEM leukemia = system: CCRF-CEM leukemia
COLO 205 colon = system: COLO 205 colon
DU-145 prostate = system: DU-145 prostate
EKVX NSCLC = system: EKVX NSCLC
HCC-2998 colon = system: HCC-2998 colon
HCT-116 colon = system: HCT-116 colon
HCT-15 colon = system: HCT-15 colon
HL-60(TB) leukemia = system: HL-60(TB) leukemia
HOP-62 NSCLC = system: HOP-62 NSCLC
HOP-92 NSCLC = system: HOP-92 NSCLC
HS 578T breast = system: HS 578T breast
HT29 colon = system: HT29 colon
IGROV1 ovarian = system: IGROV1 ovarian
K-562 leukemia = system: K-562 leukemia
KM12 colon = system: KM12 colon
M14 melanoma = system: M14 melanoma
MALME-3M melanoma = system: MALME-3M melanoma
MCF7 breast = system: MCF7 breast
MDA-MB-231 breast = system: MDA-MB-231 breast
MDA-MB-435 = system: MDA-MB-435
MOLT-4 leukemia = system: MOLT-4 leukemia
NCI-H226 lung = system: NCI-H226 lung
NCI-H23 lung = system: NCI-H23 lung
NCI-H460 lung = system: NCI-H460 lung
NCI-H522 lung = system: NCI-H522 lung
NCI/ADR-RES ovarian = system: NCI/ADR-RES ovarian
OVCAR-3 ovarian = system: OVCAR-3 ovarian
OVCAR-4 ovarian = system: OVCAR-4 ovarian
OVCAR-5 ovarian = system: OVCAR-5 ovarian
OVCAR-8 ovarian = system: OVCAR-8 ovarian
PC-3 prostate = system: PC-3 prostate
RPMI-8226 leukemia = system: RPMI-8226 leukemia
RXF 393 renal = system: RXF 393 renal
SF-268 CNS = system: SF-268 CNS
SF-295 CNS = system: SF-295 CNS
SF-539 CNS = system: SF-539 CNS
SK-MEL-2 melanoma = system: SK-MEL-2 melanoma
SK-MEL-28 melanoma = system: SK-MEL-28 melanoma
SK-MEL-5 melanoma = system: SK-MEL-5 melanoma
SK-OV-3 ovarian = system: SK-OV-3 ovarian
SN12C renal = system: SN12C renal
SNB-19 CNS = system: SNB-19 CNS
SNB-75 CNS = system: SNB-75 CNS
SR leukemia = system: SR leukemia
SW-620 colon = system: SW-620 colon
T-47D breast = system: T-47D breast
TK-10 renal = system: TK-10 renal
UACC-257 melanoma = system: UACC-257 melanoma
UACC-62 melanoma = system: UACC-62 melanoma
UO-31 renal = system: UO-31 renal

**Q.** `CC1=C(Nc2ccc(N3CCN(C)CC3)cc2)C(=O)c2cncnc2C1=O` was tested. Which GI50 (786-0 renal) did it give?
**A.** 20.4 µM

**Q.** And the TGI (786-0 renal)?
**A.** 52.5 µM

**Q.** And the GI50 (A549 NSCLC)?
**A.** 3.96 µM

**Q.** What about the TGI (A549 NSCLC) of the same compound?
**A.** 17.6 µM

**Q.** What about the GI50 (ACHN renal) of the same compound?
**A.** 2.31 µM

**Q.** And the TGI (ACHN renal)?
**A.** 5.88 µM

**Q.** And the GI50 (BT-549 breast)?
**A.** 17.1 µM

**Q.** What about the TGI (BT-549 breast) of the same compound?
**A.** 32.5 µM

**Q.** And the GI50 (CAKI-1 renal)?
**A.** 3.27 µM

**Q.** What about the TGI (CAKI-1 renal) of the same compound?
**A.** 14.2 µM

**Q.** What about the GI50 (CCRF-CEM leukemia) of the same compound?
**A.** 2.6 µM

**Q.** What about the TGI (CCRF-CEM leukemia) of the same compound?
**A.** > 100 µM

**Q.** And the GI50 (COLO 205 colon)?
**A.** 15.8 µM

**Q.** What about the TGI (COLO 205 colon) of the same compound?
**A.** 33.1 µM

**Q.** And the GI50 (DU-145 prostate)?
**A.** 4.34 µM

**Q.** And the TGI (DU-145 prostate)?
**A.** 16.9 µM

**Q.** And the GI50 (EKVX NSCLC)?
**A.** 5.63 µM

**Q.** What about the TGI (EKVX NSCLC) of the same compound?
**A.** 19.1 µM

**Q.** What about the GI50 (HCC-2998 colon) of the same compound?
**A.** 17.4 µM

**Q.** What about the TGI (HCC-2998 colon) of the same compound?
**A.** 36 µM

**Q.** What about the GI50 (HCT-116 colon) of the same compound?
**A.** 2.48 µM

**Q.** What about the TGI (HCT-116 colon) of the same compound?
**A.** 6.13 µM

**Q.** What about the GI50 (HCT-15 colon) of the same compound?
**A.** 12.9 µM

**Q.** And the TGI (HCT-15 colon)?
**A.** 41 µM

**Q.** What about the GI50 (HL-60(TB) leukemia) of the same compound?
**A.** 2.5 µM

**Q.** And the TGI (HL-60(TB) leukemia)?
**A.** 6.11 µM

**Q.** And the GI50 (HOP-62 NSCLC)?
**A.** 19.2 µM

**Q.** What about the TGI (HOP-62 NSCLC) of the same compound?
**A.** 60.4 µM

**Q.** And the GI50 (HOP-92 NSCLC)?
**A.** 2.12 µM

**Q.** What about the TGI (HOP-92 NSCLC) of the same compound?
**A.** 4.37 µM

**Q.** And the GI50 (HS 578T breast)?
**A.** 19.5 µM

**Q.** And the TGI (HS 578T breast)?
**A.** 55.1 µM

**Q.** And the GI50 (HT29 colon)?
**A.** 10.2 µM

**Q.** What about the TGI (HT29 colon) of the same compound?
**A.** 61.8 µM

**Q.** What about the GI50 (IGROV1 ovarian) of the same compound?
**A.** 2.24 µM

**Q.** And the TGI (IGROV1 ovarian)?
**A.** 5.17 µM

**Q.** What about the GI50 (K-562 leukemia) of the same compound?
**A.** 2.78 µM

**Q.** What about the TGI (K-562 leukemia) of the same compound?
**A.** > 100 µM

**Q.** What about the GI50 (KM12 colon) of the same compound?
**A.** 10.1 µM

**Q.** What about the TGI (KM12 colon) of the same compound?
**A.** 30.4 µM

**Q.** And the GI50 (M14 melanoma)?
**A.** 14.9 µM

**Q.** What about the TGI (M14 melanoma) of the same compound?
**A.** 32.2 µM

**Q.** And the GI50 (MALME-3M melanoma)?
**A.** 8.96 µM

**Q.** And the TGI (MALME-3M melanoma)?
**A.** 21.7 µM

**Q.** What about the GI50 (MCF7 breast) of the same compound?
**A.** 1.92 µM

**Q.** And the TGI (MCF7 breast)?
**A.** 4.19 µM

**Q.** And the GI50 (MDA-MB-231 breast)?
**A.** 2.67 µM

**Q.** And the TGI (MDA-MB-231 breast)?
**A.** 7.78 µM

**Q.** What about the GI50 (MDA-MB-435) of the same compound?
**A.** 1.87 µM

**Q.** And the TGI (MDA-MB-435)?
**A.** 3.4 µM

**Q.** What about the GI50 (MOLT-4 leukemia) of the same compound?
**A.** 2.01 µM

**Q.** And the TGI (MOLT-4 leukemia)?
**A.** 6.39 µM

**Q.** And the GI50 (NCI-H226 lung)?
**A.** 15.2 µM

**Q.** What about the TGI (NCI-H226 lung) of the same compound?
**A.** 35.7 µM

**Q.** What about the GI50 (NCI-H23 lung) of the same compound?
**A.** 6.26 µM

**Q.** And the TGI (NCI-H23 lung)?
**A.** 32.7 µM

**Q.** What about the GI50 (NCI-H460 lung) of the same compound?
**A.** 3.31 µM

**Q.** And the TGI (NCI-H460 lung)?
**A.** 11.4 µM

**Q.** What about the GI50 (NCI-H522 lung) of the same compound?
**A.** 16.1 µM

**Q.** What about the TGI (NCI-H522 lung) of the same compound?
**A.** 39.3 µM

**Q.** What about the GI50 (NCI/ADR-RES ovarian) of the same compound?
**A.** 3.09 µM

**Q.** And the TGI (NCI/ADR-RES ovarian)?
**A.** 20.3 µM

**Q.** What about the GI50 (OVCAR-3 ovarian) of the same compound?
**A.** 1.97 µM

**Q.** And the TGI (OVCAR-3 ovarian)?
**A.** 4.28 µM

**Q.** What about the GI50 (OVCAR-4 ovarian) of the same compound?
**A.** 1.09 µM

**Q.** What about the TGI (OVCAR-4 ovarian) of the same compound?
**A.** 2.28 µM

**Q.** What about the GI50 (OVCAR-5 ovarian) of the same compound?
**A.** 3.66 µM

**Q.** What about the TGI (OVCAR-5 ovarian) of the same compound?
**A.** 16.9 µM

**Q.** And the GI50 (OVCAR-8 ovarian)?
**A.** 2.28 µM

**Q.** What about the TGI (OVCAR-8 ovarian) of the same compound?
**A.** 6.28 µM

**Q.** What about the GI50 (PC-3 prostate) of the same compound?
**A.** 3.05 µM

**Q.** And the TGI (PC-3 prostate)?
**A.** 11.9 µM

**Q.** What about the GI50 (RPMI-8226 leukemia) of the same compound?
**A.** 3.26 µM

**Q.** What about the TGI (RPMI-8226 leukemia) of the same compound?
**A.** 11.7 µM

**Q.** What about the GI50 (RXF 393 renal) of the same compound?
**A.** 5.71 µM

**Q.** What about the TGI (RXF 393 renal) of the same compound?
**A.** 19.4 µM

**Q.** And the GI50 (SF-268 CNS)?
**A.** 16 µM

**Q.** And the TGI (SF-268 CNS)?
**A.** 50.4 µM

**Q.** What about the GI50 (SF-295 CNS) of the same compound?
**A.** 11.9 µM

**Q.** And the TGI (SF-295 CNS)?
**A.** 28.1 µM

**Q.** What about the GI50 (SF-539 CNS) of the same compound?
**A.** 13.5 µM

**Q.** What about the TGI (SF-539 CNS) of the same compound?
**A.** 26.9 µM

**Q.** And the GI50 (SK-MEL-2 melanoma)?
**A.** 16 µM

**Q.** And the TGI (SK-MEL-2 melanoma)?
**A.** 42 µM

**Q.** And the GI50 (SK-MEL-28 melanoma)?
**A.** 17.1 µM

**Q.** What about the TGI (SK-MEL-28 melanoma) of the same compound?
**A.** 43.3 µM

**Q.** And the GI50 (SK-MEL-5 melanoma)?
**A.** 14.4 µM

**Q.** What about the TGI (SK-MEL-5 melanoma) of the same compound?
**A.** 27.6 µM

**Q.** And the GI50 (SK-OV-3 ovarian)?
**A.** 16.7 µM

**Q.** What about the TGI (SK-OV-3 ovarian) of the same compound?
**A.** 35.3 µM

**Q.** And the GI50 (SN12C renal)?
**A.** 2.02 µM

**Q.** And the TGI (SN12C renal)?
**A.** 4.48 µM

**Q.** And the GI50 (SNB-19 CNS)?
**A.** 17.2 µM

**Q.** What about the TGI (SNB-19 CNS) of the same compound?
**A.** 37.2 µM

**Q.** And the GI50 (SNB-75 CNS)?
**A.** 14.7 µM

**Q.** And the TGI (SNB-75 CNS)?
**A.** 30 µM

**Q.** And the GI50 (SR leukemia)?
**A.** 3.22 µM

**Q.** What about the TGI (SR leukemia) of the same compound?
**A.** > 100 µM

**Q.** What about the GI50 (SW-620 colon) of the same compound?
**A.** 2.54 µM

**Q.** And the TGI (SW-620 colon)?
**A.** 8.04 µM

**Q.** And the GI50 (T-47D breast)?
**A.** 1.78 µM

**Q.** And the TGI (T-47D breast)?
**A.** 4.26 µM

**Q.** And the GI50 (TK-10 renal)?
**A.** 28.5 µM

**Q.** What about the TGI (TK-10 renal) of the same compound?
**A.** 58.1 µM

**Q.** And the GI50 (UACC-257 melanoma)?
**A.** 2.34 µM

**Q.** What about the TGI (UACC-257 melanoma) of the same compound?
**A.** 6.42 µM

**Q.** And the GI50 (UACC-62 melanoma)?
**A.** 2.38 µM

**Q.** And the TGI (UACC-62 melanoma)?
**A.** 5.64 µM

**Q.** And the GI50 (UO-31 renal)?
**A.** 13.9 µM

**Q.** And the TGI (UO-31 renal)?
**A.** 33.5 µM
